Assay results: US20220387604A1, “SELECTIVE DUAL HISTONE DEACETYLASE 6/8 (HDAC6/8) DEGRADERS AND METHODS OF USE THEREOF” (DANA-FARBER CANCER INSTITUTE, INC., priority 2019, published 2022)

Assays:
CRBN = target: T1, CRBN (Homo sapiens, UniProt Q96SW2); assay: Cellular CRBN engagement assay (competition with dBET6, BRD4BD2-eGFP reporter, Flip-In 293 cells); type: cell-based; details: titrated in the presence of 100 nM dBET6, 5 h, Flip-In 293 cells expressing BRD4BD2-eGFP/mCherry
T1 construct: endogenous in cells; host or cells: Flip-In 293 cells stably expressing BRD4BD2-eGFP-P2A-mCherry
Experimental: BRD4BD2 was subcloned into mammalian pcDNA5/FRT Vector (Ampicillin and Hygromycin B resistant) modified to contain MCS-eGFP-P2A-mCherry. Stable cell lines expressing eGFP-protein fusion and mCherry reporter were generated using Flip-In 293 system. Plasmid (0.3 μg) and pOG44 (4.7 μg) DNA were preincubated in 100 μL of Opti-MEM I (Gibco, Life Technologies™) media containing 0.05 mg/ml Lipofectamine 2000 (Invitrogen™) for 20 min and added to Flip-In 293 cells containing 1.9 ml of DMEM media (Gibco, Life Technologies™) per well in a 6-well plate format (Falcon, 353046). Cells were propagated after 48 h and transferred into a […] (Coming, 430165) in DMEM media containing 50 μg/ml of Hygromycin B (REF 10687010, Invitrogen™) as a selection marker. Following 2-3 passage cycles, FACS (FACSAria II, BD) was used to enrich for cells expressing eGFP and mCherry.
Cells were seeded at 30-50% confluency in either 24, 48 or 96 well plates (3524, 3548, 3596 respectively, Costar) a day before compound treatment. The inventive compounds were titrated in the presence of 100 nM dBET6 and then were incubated with cells for 5 h following trypsinization and resuspension in DMEM media, transferred into 96-well plates (353910, Falcon) and analyzed by flow cytometer (Guava® easyCyte™ HT, Millipore). Signal from at least 3000 events per well was acquired and the eGFP and mCherry florescence monitored. Data was analyzed using FlowJo® (FlowJo®, LCC). Forward and side scatter outliers, frequently associated with cell debris, were removed leaving >90% of total cells, followed by removal of eGFP and mCherry signal outliers, leaving 88-90% of total cells creating the set used for quantification. The eGFP protein abundance relative to mCherry was then quantified as a ten-fold amplified ratio for each individual cell using the formula: 10× eGFP/mCherry. The median of the ratio was then calculated per set, normalized to the median of the DMSO ratio. […]

HDAC6/8 = assay: Quantitative proteomics of cellular protein abundance in Kelly cells: HDAC6/8; type: cell-based, human; details: for change of cellular HDAC6/8 protein levels (heat map FIG. 3): 1 μM, 5 hours, compared to DMSO control; for reduction in HDAC6/8 protein levels compared to DMSO treated cells: moderated t-test, scatter plots FIG. 2A-2C, 4A-4B
Experimental: Lysis buffer (8 M Urea, 50 mM NaCl, 50 mM 4-(2hydroxyethyl)-1-piperazineethanesulfonic acid (EPPS) pH 8.5, protease and phosphatase inhibitors from Roche®) were added to the cell pellets and homogenized by 20 passes through a 21 gauge (1.25 in. long) needle to achieve a cell lysate with a protein concentration between 1-4 mg mL^−1. A micro-BCA assay (Pierce™) was used to determine the final protein concentration in the cell lysate. 200 μg of protein for each sample were reduced and alkylated as described in Donovan et al., Elife 7:e38430 (2018).
Proteins were precipitated using methanol/chloroform. Four volumes of methanol were added to the cell lysate, followed by one volume of chloroform, and finally three volumes of water. The mixture was vortexed and centrifuged to separate the chloroform phase from the aqueous phase. The precipitated protein was washed with three volumes of methanol, centrifuged and the resulting washed precipitated protein was allowed to air dry. The precipitated protein was resuspended in 4 M Urea, 50 mM HEPES pH 7.4, followed by dilution to 1 M urea with the addition of 200 mM EPPS, pH 8. Proteins were first digested with LysC (1:50; enzyme:protein) for 12 hours at room temperature. The LysC digestion was diluted to 0.5 M Urea with 200 mM EPPS pH 8 followed by digestion with trypsin (1:50; enzyme:protein) for 6 hours at 37° C. Tandem mass tag (TMT) reagents (Thermo Fisher Scientific) were dissolved in anhydrous acetonitrile (ACN) according to manufacturer's instructions.
Anhydrous ACN was added to each peptide sample to a final concentration of 30% v/v, and labeling was induced with the addition of TMT reagent to each sample at a ratio of 1:4 peptide:TMT label. The 10-plex labeling reactions were performed for 1.5 hours at room temperature and the reaction quenched by the addition of hydroxylamine to a final concentration of 0.3% for 15 minutes at room temperature. The sample channels were combined at a 1:1:1:1:1:1:1:1:1:1:1 ratio, desalted using C18 solid phase extraction cartridges (Waters®) and analyzed by LC-MS for channel ratio comparison. Samples were then combined using the adjusted volumes determined in the channel ratio analysis and dried down in a speed vacuum. The combined sample was then resuspended in 1% formic acid, and acidified (pH 2-3) before being subjected to desalting with C18 SPE (Sep-Pak®, Waters®). Samples were then offline fractionated into 96 fractions by high pH reverse-phase HPLC (Agilent® LC1260) through an aeris peptide xb-c18 column (Phenomenex®) with mobile phase A containing 5% acetonitrile and 10 mM NH4HCO3 in LC-MS grade H2O, and mobile phase B containing 90% acetonitrile and 10 mM NH4HCO3 in LC-MS grade H2O (both pH 8.0). The 96 resulting fractions were then pooled in a non-continuous manner into 24 fractions and these fractions were used for subsequent mass spectrometry analysis.
Data were collected using an Orbitrap Fusion™ Lumos™ mass spectrometer (Thermo Fisher Scientific, San Jose, Calif., USA) coupled with a Proxeon EASY-nLC™ 1200 LC pump (Thermo Fisher Scientific). Peptides were separated on an EasySpray™ ES803 75 μm inner diameter microcapillary column (ThermoFisher Scientific).
Each analysis used an MS3-based TMT method as described in McAlister et al., Anal. Chem. 86(14):7150-7158 (2014). The data were acquired using a mass range of m/z 340-1350, resolution 120,000, automatic gain control (AGC) target 1×10^6, maximum injection time 100 ms, dynamic exclusion of 120 seconds for the peptide measurements in the Orbitrap Fusion™ Lumos™ mass spectrometer. Data dependent MS2 spectra were acquired in the ion trap with a normalized collision energy (NCE) set at 55%, AGC target set to 1.5×10^5 and a maximum injection time of 150 ms. […]

IC50 (CRBN) [µM]	SMILES	change of cellular HDAC6/8 protein levels (heat map FIG. 3) (HDAC6/8)	reduction in HDAC6/8 protein levels compared to DMSO treated cells (HDAC6/8)
19.2	O=C(/C=C/c1ccc(CN(CCOCCNc2cccc3c2C(=O)N(C2CCC(=O)NC2=O)C3=O)CCc2c[nH]c3ccccc23)cc1)NO (stereo not drawn) [Compound 2, (E)-3-(4-(((2-(1H-indol-3-yl)ethyl)(2-(2-((2-(2,6-dioxopiperidin-3-yl)-1,3-dioxoisoindolin-4-yl)amino)ethoxy)ethyl)amino)methyl)phenyl)-N-hydroxyacrylamide]	induced down-regulation	significant reduction
10	O=C(/C=C/c1ccc(CN(CCCCCNc2cccc3c2C(=O)N(C2CCC(=O)NC2=O)C3=O)CCc2c[nH]c3ccccc23)cc1)NO (stereo not drawn) [Compound 3, (E)-3-(4-(((2-(1H-indol-3-yl)ethyl)(5-((2-(2,6-dioxopiperidin-3-yl)-1,3-dioxoisoindolin-4-yl)amino)pentyl)amino)methyl)phenyl)-N-hydroxyacrylamide]	induced down-regulation	significant reduction

SMILES	IC50 (CRBN) [µM]	change of cellular HDAC6/8 protein levels (heat map FIG. 3) (HDAC6/8)	reduction in HDAC6/8 protein levels compared to DMSO treated cells (HDAC6/8)
O=C(/C=C/c1ccc(CN(CCOCCOCCNc2cccc3c2C(=O)N(C2CCC(=O)NC2=O)C3=O)CCc2c[nH]c3ccccc23)cc1)NO (stereo not drawn) [Compound 1, (E)-3-(4-(((2-(1H-indol-3-yl)ethyl)(2-(2-(2-((2-(2,6-dioxopiperidin-3-yl)-1,3-dioxoisoindolin-4-yl)amino)ethoxy)ethoxy)ethyl)amino)methyl)phenyl)-N-hydroxyacrylamide]	11.7	induced down-regulation	significant reduction
